The source of these data is ChEMBL document CHEMBL2029332, “Identification of binding specificity-determining features in protein families” (J Med Chem, 2012).

Usually Ki stands for the dissociation constant of the complex between target and ligand, obtained from inhibition or displacement.

Some results are limits rather than exact numbers.

Experiment [1] has as its target Protein-tyrosine kinase 2-beta (Homo sapiens, UniProt Q14289). Description: Inhibition of human recombinant PYK2 by ESI-MS analysis.
The target in experiment [2] is Cyclin-dependent kinase 2/cyclin E1 (Homo sapiens, UniProt P24941). Put plainly: Inhibition of human recombinant CDK2/CycE using HHASPRK as substrate by ESI-MS analysis. Format: protein-complex assay.
For experiment [3], the target named is T1, Tyrosine-protein kinase ZAP-70 (Homo sapiens, UniProt P43403).
T1 sequence (P43403 whole entry): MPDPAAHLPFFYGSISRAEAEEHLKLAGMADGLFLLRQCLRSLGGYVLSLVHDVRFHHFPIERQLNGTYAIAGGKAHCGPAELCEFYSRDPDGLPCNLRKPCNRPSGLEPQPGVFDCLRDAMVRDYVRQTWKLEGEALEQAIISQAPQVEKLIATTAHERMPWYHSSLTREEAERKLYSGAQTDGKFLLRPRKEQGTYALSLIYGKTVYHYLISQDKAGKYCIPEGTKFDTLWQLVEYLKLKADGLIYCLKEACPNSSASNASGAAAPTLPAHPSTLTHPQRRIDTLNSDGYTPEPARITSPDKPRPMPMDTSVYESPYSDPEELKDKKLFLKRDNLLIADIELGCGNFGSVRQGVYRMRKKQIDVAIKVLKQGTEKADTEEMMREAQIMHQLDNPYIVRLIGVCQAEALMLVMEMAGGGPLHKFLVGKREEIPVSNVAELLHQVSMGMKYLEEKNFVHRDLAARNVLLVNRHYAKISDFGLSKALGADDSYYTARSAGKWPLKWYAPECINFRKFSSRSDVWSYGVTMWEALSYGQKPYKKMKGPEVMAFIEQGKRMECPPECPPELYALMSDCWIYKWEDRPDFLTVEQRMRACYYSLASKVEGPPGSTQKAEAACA
Description: Inhibition of human recombinant ZAP70 using EEEEYEEEE as substrate by ESI-MS analysis.

Sequence of Protein-tyrosine kinase 2-beta (Q14289 whole entry): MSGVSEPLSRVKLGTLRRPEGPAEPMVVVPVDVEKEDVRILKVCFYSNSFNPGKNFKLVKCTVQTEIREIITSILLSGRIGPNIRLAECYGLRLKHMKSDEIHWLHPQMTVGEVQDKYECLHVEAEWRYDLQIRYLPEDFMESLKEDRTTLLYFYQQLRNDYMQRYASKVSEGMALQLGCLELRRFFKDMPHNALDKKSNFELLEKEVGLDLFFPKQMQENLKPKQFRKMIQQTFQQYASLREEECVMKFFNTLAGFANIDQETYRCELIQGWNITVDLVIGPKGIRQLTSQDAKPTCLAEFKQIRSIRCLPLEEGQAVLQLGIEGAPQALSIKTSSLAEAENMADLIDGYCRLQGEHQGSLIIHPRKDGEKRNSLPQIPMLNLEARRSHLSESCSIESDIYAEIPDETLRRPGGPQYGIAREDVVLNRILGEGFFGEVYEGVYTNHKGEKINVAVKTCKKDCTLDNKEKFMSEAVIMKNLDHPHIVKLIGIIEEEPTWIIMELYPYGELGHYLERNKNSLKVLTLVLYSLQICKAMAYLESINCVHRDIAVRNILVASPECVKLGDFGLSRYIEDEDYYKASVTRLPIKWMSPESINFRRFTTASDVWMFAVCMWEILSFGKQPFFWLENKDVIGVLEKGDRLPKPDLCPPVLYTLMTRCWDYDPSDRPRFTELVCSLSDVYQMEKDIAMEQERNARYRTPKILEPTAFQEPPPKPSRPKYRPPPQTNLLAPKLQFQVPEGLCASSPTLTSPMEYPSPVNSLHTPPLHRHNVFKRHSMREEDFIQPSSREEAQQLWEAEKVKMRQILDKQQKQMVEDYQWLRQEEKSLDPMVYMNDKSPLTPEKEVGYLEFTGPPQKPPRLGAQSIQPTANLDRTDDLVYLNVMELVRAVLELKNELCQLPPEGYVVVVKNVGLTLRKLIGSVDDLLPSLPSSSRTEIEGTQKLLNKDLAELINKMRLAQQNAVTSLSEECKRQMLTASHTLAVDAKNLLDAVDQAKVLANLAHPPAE

Take `Cc1[nH]c(/C=C2\C(=O)Nc3ccc(S(=O)(=O)N(C)c4cccc(Cl)c4)cc32)c(C)c1C(=O)N1CCN(C)CC1`: the Ki is 10.5 nM in experiment [1], 490 nM in experiment [2] and over 10000 nM in experiment [3].

Turning to `NS(=O)(=O)c1ccc(Nc2nc(OCC3CCCCC3)c3nc[nH]c3n2)cc1`, the Ki in experiment [1] and in experiment [3] was over 10000 nM each time.

Take `NS(=O)(=O)c1ccc(N/N=C2\C(=O)Nc3ccc(Br)cc32)cc1`: the Ki in experiment [1] and in experiment [3] was over 10000 nM throughout.

For the molecule `CCCCc1c(-c2ccc(OC)cc2)[nH]c2nccnc12` [ALOISINE], the Ki was 933 nM in experiment [1], 0.525 nM in experiment [2] and 2630 nM in experiment [3].

On to `CN(C)c1ncnc2nc[nH]c12` [DIMETHYLADENINE], for which the Ki in experiment [1] was over 10000 nM; in experiment [2] it was 1100 nM; in experiment [3], over 10000 nM.

On to `O=C1C(C2=C3C(=Nc4ccccc43)/C(=C\c3ccc(O)cc3)C2=O)=C2C(=Nc3ccccc32)/C1=C\c1ccc(O)cc1` [SCYTONEMIN], for which the values for the Ki in experiment [1], in experiment [2] and in experiment [3] were over 10000 nM, 372 nM and 1550 nM, respectively.

Regarding `N#CC(C#N)=Cc1ccc(O)c(O)c1` [TYRPHOSTIN 23], the Ki in experiment [2] is 617 nM.
